US20150232509A1, “SPIRO RING COMPOUNDS AS HEPATITIS C VIRUS (HCV) INHIBITORS” (SUNSHINE LAKE PHARMA CO., LTD., priority 2012, published 2015)

What was measured:
HCV GT1b replicon cells = assay: HCV Replicon assay, GT1b replicon cells (Luciferase / NEO qPCR); format: cell-based; conditions: Hepatitis C virus, 72 hours incubation, read-out: EC50 against HCV 1b genotype
Description: (§1) An HCV Replicon assay was utilized in the present invention, and was prepared, developed and validated as described in Science, 1999, 285 (5424), 110-3 and J. Virol., 2003, 77 (5), 3007-19.
(§2) HCV GT1a, GT1b and GT2a replicon cells were used to test the currently described compound series as well as wild-type cells HCV 1b and resistant cells Y93H, L31F, P32L and 1302V. […]
(§3) The GT1a cells and GT1b cells were seeded into 96-well plates (8,000 cells in 125 μL/well) respectively; each compound was diluted to desired concentration using 5-fold serial dilutions protocol, 10 doses in duplicate, and added to wells with POD™ 810 Plate Assembler. The final concentration of DMSO was 0.5%; the plates were incubated in a CO2 incubator for 72 hours; after that, 40 μL of Luciferase assay substrate (Promega Bright-Glo) was added to each well, and detected by a chemiluminescence detection system (Topcount Microplate Scintillation and Luminescence Counter) 5 minutes later; data analysis.
(§4) The GT1a cells and GT1b cells were seeded into 96-well plates (8,000 cells in 125 μL/well) respectively; each compound was diluted to desired concentration using 5-fold serial dilutions protocol, 10 doses in duplicate, and added to wells with POD™ 810 Plate Assembler., the final concentration of DMSO was 0.5%; the cells were incubated in a CO2 incubator for 72 hours; quantitative PCR. • Sample preparation: the supernatant was removed, 100 μL of FCW buffer solution was added to each well, washed carefully and discarded the solution; 50 μL of lysate FCP was added to each well, the cells was lysed as PCR template and PCR template was diluted with DEPC water as sample template. • Quantitative PCR: preparation of reaction mixture according to PCR system; the reaction mixture was dispensed into a 384-well PCR reaction plate (specially for quantitative); and a standard template which was diluted in proportion was distributed into the plate; and the sample template was distributed into the plate; then the 384-well plate was sealed with closure plate membrane; the […] PCR machine was operated by procedures; data analysis. 3. Data Processing: the EC50 Values of Compounds were Analyzed by GraphPad Prism Software.

HCV GT1a replicon cells = assay: HCV Replicon assay, GT1a replicon cells (Luciferase / NEO qPCR); format: cell-based; conditions: Hepatitis C virus, 72 hours incubation, read-out: EC50 against HCV 1a genotype
Description: as §1, §2, §3, §4

| Compound | EC50 (HCV GT1b replicon cells) [nM] | EC50 (HCV GT1a replicon cells) [nM] |
| --- | --- | --- |
| COC(=O)N[C@H](C(=O)N1CCC[C@H]1c1ncc(-c2ccc(-c3ccc(-c4cnc([C@@H]5CCCN5C(=O)[C@@H](NC(=O)OC)C(C)C)[nH]4)c4c3C3(CCCN3C)CC4)cc2)[nH]1)C(C)C (some centres unmarked) [Example 49] | 0.357 | 23.6 |
| COC(=O)N[C@H](C(=O)N1C2CCC(C2)[C@H]1c1ncc(-c2ccc(-c3ccc(-c4cnc([C@@H]5C6CCC(C6)N5C(=O)[C@@H](NC(=O)OC)C(C)C)[nH]4)c4c3C3(CCCC3)CC4)cc2)[nH]1)C(C)C (some centres unmarked) [Example 25] | 0.032 | 10.7 |
| COC(=O)N[C@H](C(=O)N1CCC[C@H]1c1ncc(-c2ccc(-c3ccc(-c4cnc([C@@H]5CCCN5C(=O)[C@@H](NC(=O)OC)C(C)C)[nH]4)c4c3C3(CCOC3)CC4)cc2)[nH]1)C(C)C (some centres unmarked) [Example 52] | 0.033 | 3.67 |
| COC(=O)N[C@H](C(=O)N1CCC[C@H]1C(=O)Nc1ccc(-c2ccc(-c3ccc(NC(=O)[C@@H]4CCCN4C(=O)[C@@H](NC(=O)OC)C(C)C)cc3)c3c2CCC32CCCC2)cc1)C(C)C [Example 20] | 1.03 | 5.9 |
| CCC(C)[C@H](NC(=O)OC)C(=O)N1C2CC2C[C@H]1c1ncc(-c2ccc(-c3ccc(-c4ccc(-c5cnc([C@@H]6CC7CC7N6C(=O)[C@@H](NC(=O)OC)C(C)CC)[nH]5)cc4)c4c3CCC43CCCC3)cc2)[nH]1 (some centres unmarked) [Example 24] | 0.055 | 2.69 |
| COC(=O)N[C@H](C(=O)N1CCC[C@H]1c1ncc(-c2ccc(-c3ccc(-c4cnc([C@@H]5CC6(CN5C(=O)[C@@H](NC(=O)OC)C(C)C)OCCO6)[nH]4)c4c3C3(CCCC3)CC4)cc2)[nH]1)C(C)C [Example 31] | 0.048 | 4.68 |
| CNC(=O)N[C@H](C(=O)N1C2CC2C[C@H]1c1nc2ccc(-c3ccc(-c4ccc(-c5cnc([C@@H]6CCCN6C(=O)[C@@H](NC(=O)OC)C(C)C)[nH]5)cc4)c4c3C3(CCCC3)CC4)cc2[nH]1)C(C)C (some centres unmarked) [Example 11] | 0.096 | 0.447 |
| COC(=O)NC(C(=O)N1CCCC1c1ncc(-c2ccc(-c3ccc(-c4ccc5[nH]c(C6CCCN6C(=O)C(NC(=O)OC)C(C)C)nc5c4)c4c3C3(CCCC3)CC4)cc2)[nH]1)C(C)C (centres unmarked) [Example 55] | 0.028 | 0.073 |
| COC(=O)N[C@H](C(=O)N1C2CC2C[C@H]1c1ncc(-c2ccc(-c3ccc(-c4ccc5nc([C@@H]6CC7CC7N6C(=O)[C@@H](NC(=O)OC)C(C)C)[nH]c5c4)c4c3C3(CCCC3)CC4)cc2)[nH]1)C(C)C (some centres unmarked) [Example 32] | 0.077 | 0.064 |
| COC(=O)N[C@H](C(=O)N1CCC[C@H]1C(=O)Nc1cccc(-c2ccc(-c3ccc(-c4cnc([C@@H]5CCCN5C(=O)[C@@H](NC(=O)OC)C(C)C)[nH]4)cc3)c3c2CCC32CCCC2)c1)C(C)C [Example 34] | 0.017 | 0.837 |
| COC(=O)N[C@H](C(=O)N1CCC[C@H]1c1ncc(-c2ccc(-c3ccc(-c4cnc([C@@H]5CCCN5C(=O)[C@@H](NC(=O)OC)C(C)C)[nH]4)c4c3C3(CC4)CCC(C)CC3)s2)[nH]1)C(C)C (some centres unmarked) [Example 44] | 0.937 | 13.7 |
| CCC(C)[C@H](NC(=O)OC)C(=O)N1CCC[C@H]1c1nc2ccc(-c3ccc(-c4ccc(-c5cnc([C@@H]6CCCN6C(=O)[C@@H](NC(=O)OC)C(C)C)[nH]5)cc4)c4c3CCC43CCCC3)cc2[nH]1 (some centres unmarked) [Example 9] | 0.032 | 0.097 |
| COC(=O)N[C@H](C(=O)N1CCC[C@H]1c1nc2cc(-c3ccc(-c4ccc5[nH]c([C@@H]6CCCN6C(=O)[C@@H](NC(=O)OC)C(C)C)nc5c4)c4c3CCC43CCCC3)ccc2[nH]1)C(C)C [Example 1] | 0.041 | 0.102 |
| COC(=O)N[C@H](C(=O)N1C[C@@H](C)C[C@H]1c1nc(-c2ccc(-c3ccc(-c4ccc(-c5c[nH]c([C@@H]6C[C@H](C)CN6C(=O)[C@@H](NC(=O)OC)C(C)C)n5)cc4)c4c3CCC43CCCC3)cc2)c[nH]1)C(C)C [Example 21] | 0.98 | 4.88 |
| COC(=O)N[C@H](C(=O)N1CCC[C@H]1c1ncc(C#Cc2ccc(C#Cc3cnc([C@@H]4CCCN4C(=O)[C@@H](NC(=O)OC)C(C)C)[nH]3)c3c2CCC32CCCC2)[nH]1)C(C)C [Example 7] | 0.106 | 0.955 |
| COC(=O)N[C@H](C(=O)N1CC2(CC2)C[C@H]1c1ncc(-c2ccc(-c3ccc(-c4ccc(-c5cnc([C@@H]6CC7(CC7)CN6C(=O)[C@@H](NC(=O)OC)C(C)C)[nH]5)cc4)c4c3CCC43CCCC3)cc2)[nH]1)C(C)C [Example 22] | 0.876 | 3.65 |

| Compound | EC50 (HCV GT1b replicon cells) [nM] | EC50 (HCV GT1a replicon cells) [nM] |
| --- | --- | --- |
| COC(=O)N[C@H](C(=O)N1CCC[C@H]1c1ncc(-c2ccc(-c3ccc(-c4ccc5nc([C@@H]6CCCN6C(=O)[C@@H](NC(=O)OC)C(C)C)[nH]c5c4)c4c3CCC43CCCC3)c3cnoc23)[nH]1)C(C)C [Example 46] | 0.118 | 0.388 |
| COC(=O)NC(C(=O)N1CCCC1c1nc2cc(-c3ccc(-c4ccc5[nH]c(C6CCCN6C(=O)C(NC(=O)OC)C(C)C)nc5c4)c4c3CCC43CCCC3)ccc2[nH]1)C(C)C (centres unmarked) [Example 53] | 0.074 | 0.263 |
| COC(=O)N[C@H](C(=O)N1CCC[C@H]1c1ncc(-c2ccc3cc(-c4ccc(-c5cnc([C@@H]6CCCN6C(=O)[C@@H](NC(=O)OC)C(C)C)[nH]5)c5c4C4(CCCC4)CC5)ccc3c2)[nH]1)C(C)C [Example 30] | 0.074 | 3.2 |
| COC(=O)N[C@H](C(=O)N1CC(F)(F)C[C@H]1c1nc(-c2ccc(-c3ccc(-c4cnc([C@@H]5CC(F)(F)CN5C(=O)[C@@H](NC(=O)OC)C(C)C)[nH]4)c4c3C3(CCOCC3)CC4)cc2)c[nH]1)C(C)C [Example 42] | 0.109 | 6.89 |
| COC(=O)N[C@H](C(=O)N1CCC[C@H]1c1nc(-c2ccc(-c3ccc(-c4ccc5nc([C@@H]6CCCN6C(=O)[C@@H](NC(=O)OC)C(C)C)[nH]c5c4)c4c3CCC43CCCC3)c3c2CCC3)c[nH]1)C(C)C [Example 36] | 0.089 | 1.08 |
| COC(=O)N[C@H](C(=O)N1CCC[C@H]1c1ncc(-c2ccc(-c3ccc(-c4ccc5nc([C@@H]6CCCN6C(=O)[C@@H](NC(=O)OC)C(C)C)[nH]c(=O)c5c4)c4c3C3(CCCC3)CC4)cc2)[nH]1)C(C)C [Example 38] | 0.009 | 0.066 |
| COC(=O)N[C@H](C(=O)N1CCC[C@H]1c1ncc(-c2ccc(-c3ccc(-c4cnc([C@@H]5CCCN5C(=O)[C@@H](NC(=O)OC)C(C)C)[nH]4)c4c3C3(CC4)CCN(C)C3)cc2)[nH]1)C(C)C (some centres unmarked) [Example 48] | 0.24 | 3.08 |
| COC(=O)N[C@@H](C)C(=O)N1CCCC[C@H]1c1ncc(-c2ccc(-c3ccc(-c4cnc([C@@H]5CCCCN5C(=O)[C@H](C)NC(=O)OC)[nH]4)c4c3C3(CCCC3)CC4)cc2)[nH]1 [Example 27] | 0.655 | 12.7 |
| COC(=O)N[C@H](C(=O)N1CCC[C@H]1c1ncc(-c2ccc(-c3ccc(-c4ccc5nc([C@@H]6CCCN6C(=O)[C@@H](NC(=O)OC)C(C)C)[nH]c5c4)cc3)c3c2CCC32CCCC2)[nH]1)C(C)C [Example 29] | 0.218 | 8.68 |
| COC(=O)N[C@H](C(=O)N1CCC[C@H]1c1ncc(-c2ccc(-c3ccc(-c4cnc([C@@H]5CCCN5C(=O)[C@@H](NC(=O)OC)c5ccccc5)[nH]4)c4c3C3(CC4)CCN(C)CC3)cc2)[nH]1)c1ccccc1 [Example 43] | 0.148 | 7.28 |
| C=C([C@@H](NC(=O)OC)C(C)C)N1CC(C)(C)C[C@H]1c1ncc(-c2ccc(-c3ccc(-c4cnc([C@@H]5CC(C)(C)CN5C(=O)[C@@H](NC(=O)OC)C(C)C)[nH]4)cc3)c3c2CCC32CCCC2)[nH]1 [Example 18] | 0.203 | 0.458 |
| COC(=O)N[C@H](C(=O)N1CCC[C@H]1c1ncc(C#Cc2ccc(-c3ccc(-c4cnc([C@@H]5CCCN5C(=O)[C@@H](NC(=O)OC)C(C)C)[nH]4)cc3)c3c2CCC32CCCC2)[nH]1)C(C)C [Example 13] | 0.032 | 0.438 |
| CC(C)[C@H](NC(=O)OC(C)(C)C)C(=O)N1CCC[C@H]1c1ncc(-c2ccc(C3CCC(c4cnc([C@@H]5CCCN5C(=O)[C@@H](NC(=O)OC(C)(C)C)C(C)C)[nH]4)CC3)c3c2CCC32CCCC2)[nH]1 (some centres unmarked) [Example 10] | 3.46 | 9.86 |
| COC(=O)N[C@H](C(=O)N1C2CCC(C2)[C@H]1c1ncc(-c2ccc(-c3ccc(-c4ccc5nc([C@@H]6C7CCC(C7)N6C(=O)[C@@H](NC(=O)OC)C(C)C)[nH]c5c4)c4c3C3(CCCC3)CC4)cc2)[nH]1)C(C)C (some centres unmarked) [Example 33] | 0.039 | 0.09 |
| COC(=O)N[C@@H](C)C(=O)N1CCC[C@H]1c1ncc(-c2ccc(-c3ccc(-c4cnc([C@@H]5CCCN5C(=O)[C@H](C)NC(=O)OC)[nH]4)c4c3C3(CCCC3)CC4)cc2)[nH]1 [Example 12] | 0.018 | 0.856 |
